In brackets after ≈: the same amount, converted by molar mass. Like-named read-outs stand apart in the source and are kept apart here.
Tests used:
[1] = target: T1, Motilin Receptor (Oryctolagus cuniculus, UniProt G1T803); assay: Tissue based assay for motilin agonist potency (rabbit duodenum contractility); assay type: cell-based
T1 construct: strips of longitudinal smooth muscle were sliced from the segments; from tissue; host or cells: rabbit duodenum longitudinal smooth muscle strips
Description: The motilin agonist potencies of compounds of this invention were evaluated using a tissue based assay, using rabbit duodenum tissue-based contractility assay, generally following the procedure of Depoortere et al., J. Gastrointestinal Motility, 1, 150-159 (1989), the disclosure of which is incorporated herein by reference. Briefly, this method measures the ability of a compound to induce contractions in rabbit duodenal tissue, a motilin receptor-bearing tissue contractilely responsive to motilin.
Strips of rabbit duodenum were tested and qualified for use in the assay by as follows. Segments of rabbit duodenum, 20-30 cm distal to the pylorus were split longitudinally. The mucosa was removed and 2×2×15 mm strips of longitudinal smooth muscle were sliced from the segments. The strips were bathed in oxygenated Krebs solution at 37° C., with 1.5 g of tension, and contractions measured auxotonically.
The carbachol was then washed away by changing the organ bath buffer twice. The strips were washed again 20±5 minutes following the carbachol contraction. Following this last wash a dose response study was initiated within 10±5 min. Each compound tested was dissolved in dimethylsulfoxide (DMSO) to a final concentration of 10 mM. A series of seven 10× serial dilutions in water was prepared, so that the concentration of the seventh serial dilution was 1.0×10^−6 mM. The first through fifth serial dilutions of the compound were applied, starting with 200 μL of the most dilute solution. After each application, there was a wait of 2±0.5 min, until the response was stable, before the application of the next dose (the next higher concentration serial dilution). The dose was increased in 10-fold increments until a small response was observed. Subsequent doses were the increased in 2- to 5-fold increments, until the maximum response was obtained. At 2±0.5 min after the last drug addition, the strips were dosed with 1 μM carbachol.
The EC50 (concentration producing a half-maximal effect) was calculated as follows. The basal tension was subtracted from the compound-induced tension for each reading. The data points were normalized against the response obtained from 1 μM carbachol at the end of the experiment. The concentration of compound was plotted against the response and fitted to the following equation: R=(Rmax·C)/(EC50+C) where R is the contraction response, Rmax is the maximal contraction response, and C is the concentration of compound. Both R and Rmax are expressed as a fraction of the 1 μM carbachol contraction and range from 0 to 1.

[2] = system: Streptococcus pneumoniae ATCC 6301; assay: Evaluation of antibacterial activity (MIC, serial dilutions on 96-well microtiter plates); assay type: cell-based; details: ATCC6301, read-out: Antibacterial Activity (MIC, μg/mL)
[3] = rabbit duodenum strips, contraction normalized to 1 μM carbachol, read-out: Motilin Receptor Agonist Activity (EC50)

T1 sequence (G1T803 1-400): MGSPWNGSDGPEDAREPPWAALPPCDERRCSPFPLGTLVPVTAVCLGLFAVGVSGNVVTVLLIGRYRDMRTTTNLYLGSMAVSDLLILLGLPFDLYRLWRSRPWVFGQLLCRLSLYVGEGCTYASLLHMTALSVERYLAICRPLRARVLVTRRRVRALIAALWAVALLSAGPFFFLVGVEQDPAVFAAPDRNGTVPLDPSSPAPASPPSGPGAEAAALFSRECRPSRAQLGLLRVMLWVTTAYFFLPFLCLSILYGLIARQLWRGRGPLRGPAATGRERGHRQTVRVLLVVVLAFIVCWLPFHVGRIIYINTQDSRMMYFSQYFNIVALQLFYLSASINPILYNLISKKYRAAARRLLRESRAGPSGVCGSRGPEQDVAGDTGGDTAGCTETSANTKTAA

SMILES | EC50 [1, 3] [nM] | MIC [2] [µg/mL] | EC50 [1] [nM]
CC[C@H]1OC(=O)[C@H](C)[C@@H](O[C@H]2C[C@@](C)(OC)[C@@H](O)[C@H](C)O2)[C@H](C)[C@@H](O[C@@H]2O[C@H](C)C[C@H](N(C)C(C)C)[C@H]2O)[C@](C)(O)C[C@@H](C)[C@H](NS(=O)(=O)C2CC2)[C@H](C)[C@@H](O)[C@]1(C)O [Compound A-41] | 170 | 128 (≈ 148 µM) | –
CC[C@H]1OC(=O)[C@H](C)[C@@H](O[C@H]2C[C@@](C)(OC)[C@@H](O)[C@H](C)O2)[C@H](C)[C@@H](O[C@@H]2O[C@H](C)C[C@H](N(C)C(C)C)[C@H]2O)[C@](C)(O)C[C@@H](C)[C@H](OCC(=O)NC2CCC2)[C@H](C)[C@@H](O)[C@]1(C)O [Compound A-45] | 28 | 128 (≈ 146 µM) | –
CC[C@H]1OC(=O)[C@H](C)[C@@H](O[C@H]2C[C@@](C)(OC)[C@@H](O)[C@H](C)O2)[C@H](C)[C@@H](O[C@@H]2O[C@H](C)C[C@H](N(C)C(C)C)[C@H]2O)[C@](C)(O)C[C@@H](C)[C@H](OCC(=O)NC)[C@H](C)[C@@H](O)[C@H]1C [Compound A-71] | 90 | > 128 | –
CC[C@H]1OC(=O)[C@H](C)[C@@H](O[C@H]2C[C@@](C)(OC)[C@@H](O)[C@H](C)O2)[C@H](C)[C@@H](O[C@@H]2O[C@H](C)C[C@H](N(C)CCO)[C@H]2O)[C@](C)(O)C[C@@H](C)[C@H](OC)[C@H](C)[C@@H](O)[C@]1(C)O [Compound A-2] | 140 | 64 (≈ 82.1 µM) | –
CC[C@H]1OC(=O)[C@H](C)[C@@H](O[C@H]2C[C@@](C)(OC)[C@@H](O)[C@H](C)O2)[C@H](C)[C@@H](O[C@@H]2O[C@H](C)C[C@H](N(C)C(C)C)[C@H]2O)[C@](C)(O)C[C@@H](C)[C@H](OS(=O)(=O)N(C)C)[C@H](C)[C@@H](O)[C@]1(C)O [Compound A-19] | 91 | 128 (≈ 147 µM) | –
CCCNC(=S)NCCO[C@@H]1[C@H](C)[C@@H](O)[C@](C)(O)[C@@H](CC)OC(=O)[C@H](C)[C@@H](O[C@H]2C[C@@](C)(OC)[C@@H](O)[C@H](C)O2)[C@H](C)[C@@H](O[C@@H]2O[C@H](C)C[C@H](N(C)C(C)C)[C@H]2O)[C@](C)(O)C[C@H]1C [Compound A-57] | 210 | 128 (≈ 141 µM) | –
CCC(=O)O[C@@H]1[C@H](C)[C@@H](O)[C@](C)(O)[C@@H](CC)OC(=O)[C@H](C)[C@@H](O[C@H]2C[C@@](C)(OC)[C@@H](O)[C@H](C)O2)[C@H](C)[C@@H](O[C@@H]2O[C@H](C)C[C@H](N(C)C3CCC3)[C@H]2O)[C@](C)(O)C[C@H]1C [Compound A-25] | 1200 | > 128 | –
CC[C@H]1OC(=O)[C@H](C)[C@@H](O[C@H]2C[C@@](C)(OC)[C@@H](O)[C@H](C)O2)[C@H](C)[C@@H](O[C@@H]2O[C@H](C)C[C@H](N(C)C(C)C)[C@H]2O)[C@](C)(O)C[C@@H](C)[C@H](OCCNC(=O)OC)[C@H](C)[C@@H](O)[C@]1(C)O [Compound A-65] | 130 | 128 (≈ 148 µM) | –
CC[C@H]1OC(=O)[C@H](C)[C@@H](O[C@H]2C[C@@](C)(OC)[C@@H](O)[C@H](C)O2)[C@H](C)[C@@H](O[C@@H]2O[C@H](C)C[C@H](N(C)C(C)C)[C@H]2O)[C@](C)(O)C[C@@H](C)[C@H](OCCCCC(=O)NC)[C@H](C)[C@@H](O)[C@]1(C)O [Compound A-74] | 270 | 128 (≈ 146 µM) | –
CC[C@H]1OC(=O)[C@H](C)[C@@H](O[C@H]2C[C@@](C)(OC)[C@@H](O)[C@H](C)O2)[C@H](C)[C@@H](O[C@@H]2O[C@H](C)C[C@H](N(C)C(C)C)[C@H]2O)[C@](C)(O)C[C@@H](C)[C@H](OC)[C@H](C)[C@@H](O)[C@]1(C)O [Compound A-1] | 66 | – | –
CC[C@H]1OC(=O)[C@H](C)[C@@H](O[C@H]2C[C@@](C)(OC)[C@@H](O)[C@H](C)O2)[C@H](C)[C@@H](O[C@@H]2O[C@H](C)C[C@H](N(C)C[C@H](C)O)[C@H]2O)[C@](C)(O)C[C@@H](C)[C@H](OS(=O)(=O)N(C)C)[C@H](C)[C@@H](O)[C@]1(C)O [Compound A-20] | 490 | 128 (≈ 144 µM) | –
CC[C@H]1OC(=O)[C@H](C)[C@@H](O[C@H]2C[C@@](C)(OC)[C@@H](O)[C@H](C)O2)[C@H](C)[C@@H](O[C@@H]2O[C@H](C)C[C@H](N(C)C(C)C)[C@H]2O)[C@](C)(O)C[C@@H](C)[C@H](OCCF)[C@H](C)[C@@H](O)[C@]1(C)O [Compound A-49] | – | 128 (≈ 158 µM) | 140
CC[C@H]1OC(=O)[C@H](C)[C@@H](O[C@H]2C[C@@](C)(OC)[C@@H](O)[C@H](C)O2)[C@H](C)[C@@H](O[C@@H]2O[C@H](C)C[C@H](N(C)C(C)C)[C@H]2O)[C@](C)(O)C[C@@H](C)[C@H](OCCNC(C)=O)[C@H](C)[C@@H](O)[C@]1(C)O [Compound A-30] | 48 | > 128 | –
CC[C@H]1OC(=O)[C@H](C)[C@@H](O[C@H]2C[C@@](C)(OC)[C@@H](O)[C@H](C)O2)[C@H](C)[C@@H](O[C@@H]2O[C@H](C)C[C@H](N(C)C[C@H](C)O)[C@H]2O)[C@](C)(O)C[C@@H](C)[C@H](OCCOC)[C@H](C)[C@@H](O)[C@]1(C)O [Compound A-6] | 1100 | 128 (≈ 153 µM) | –
CC[C@H]1OC(=O)[C@H](C)[C@@H](O[C@H]2C[C@@](C)(OC)[C@@H](O)[C@H](C)O2)[C@H](C)[C@@H](O[C@@H]2O[C@H](C)C[C@H](N(C)C(C)C)[C@H]2O)[C@](C)(O)C[C@@H](C)[C@H](OCC(=O)Nc2ccncn2)[C@H](C)[C@@H](O)[C@]1(C)O [Compound A-77] | 25 | > 128 | –
CC[C@H]1OC(=O)[C@H](C)[C@@H](O[C@H]2C[C@@](C)(OC)[C@@H](O)[C@H](C)O2)[C@H](C)[C@@H](O[C@@H]2O[C@H](C)C[C@H](N(C)C(C)C)[C@H]2O)[C@](C)(O)C[C@@H](C)[C@H](NS(=O)(=O)CC)[C@H](C)[C@@H](O)[C@]1(C)O [Compound A-40] | 350 | 128 (≈ 150 µM) | –
CC[C@H]1OC(=O)[C@H](C)[C@@H](O[C@H]2C[C@@](C)(OC)[C@@H](O)[C@H](C)O2)[C@H](C)[C@@H](O[C@@H]2O[C@H](C)C[C@H](N(C)C(C)C)[C@H]2O)[C@](C)(O)C[C@@H](C)[C@H](OC(=O)N(C)C)[C@H](C)[C@@H](O)[C@]1(C)O [Compound A-18] | 310 | 128 (≈ 153 µM) | –
CC[C@H]1OC(=O)[C@H](C)[C@@H](O[C@H]2C[C@@](C)(OC)[C@@H](O)[C@H](C)O2)[C@H](C)[C@@H](O[C@@H]2O[C@H](C)C[C@H](N(C)C(C)C)[C@H]2O)[C@](C)(O)C[C@@H](C)[C@H](OCC(=O)NC2CCOCC2)[C@H](C)[C@@H](O)[C@]1(C)O [Compound A-33] | 120 | > 128 | –
CCOC(=O)CO[C@@H]1[C@H](C)[C@@H](O)[C@](C)(O)[C@@H](CC)OC(=O)[C@H](C)[C@@H](O[C@H]2C[C@@](C)(OC)[C@@H](O)[C@H](C)O2)[C@H](C)[C@@H](O[C@@H]2O[C@H](C)C[C@H](N(C)C3CCC3)[C@H]2O)[C@](C)(O)C[C@H]1C [Compound A-10] | 680 | > 128 | –
CC[C@H]1OC(=O)[C@H](C)[C@@H](O[C@H]2C[C@@](C)(OC)[C@@H](O)[C@H](C)O2)[C@H](C)[C@@H](O[C@@H]2O[C@H](C)C[C@H](N(C)C3CCC3)[C@H]2O)[C@](C)(O)C[C@@H](C)[C@H](OC)[C@H](C)[C@@H](O)[C@]1(C)O [Compound A-47] | 220 | – | –
CC[C@H]1OC(=O)[C@H](C)[C@@H](O[C@H]2C[C@@](C)(OC)[C@@H](O)[C@H](C)O2)[C@H](C)[C@@H](O[C@@H]2O[C@H](C)C[C@H](N(C)C(C)C)[C@H]2O)[C@](C)(O)C[C@@H](C)[C@H](OC(=O)NC)[C@H](C)[C@@H](O)[C@]1(C)O [Compound A-79] | 400 | – | –
CC[C@H]1OC(=O)[C@H](C)[C@@H](O[C@H]2C[C@@](C)(OC)[C@@H](O)[C@H](C)O2)[C@H](C)[C@@H](O[C@@H]2O[C@H](C)C[C@H](N(C)C(C)C)[C@H]2O)[C@](C)(OC)C[C@@H](C)[C@H](OCC(=O)NC)[C@H](C)[C@@H](O)[C@]1(C)O [Compound A-66] | 400 | – | –
CC[C@H]1OC(=O)[C@H](C)[C@@H](O[C@H]2C[C@@](C)(OC)[C@@H](O)[C@H](C)O2)[C@H](C)[C@@H](O[C@@H]2O[C@H](C)C[C@H](N(C)C(C)C)[C@H]2O)[C@](C)(O)C[C@@H](C)[C@H](OCC(=O)NOC)[C@H](C)[C@@H](O)[C@]1(C)O [Compound A-69] | 92 | – | –
CC[C@H]1OC(=O)[C@H](C)[C@@H](O[C@H]2C[C@@](C)(OC)[C@@H](O)[C@H](C)O2)[C@H](C)[C@@H](O[C@@H]2O[C@H](C)C[C@H](N(C)C(C)C)[C@H]2O)[C@](C)(O)C[C@@H](C)[C@H](OCCNC=O)[C@H](C)[C@@H](O)[C@]1(C)O [Compound A-78] | 31 | – | –

— US7582611B2, “Motilide compounds” (Pfizer Inc., priority 2005, dated 2009)
